pIC50: −log10 of the molar value.
Tested on: KRAS PDC tumor spheroids (HUVEC+MSC), viability
Assay: Anticancer human tumor 254851-301-R-J1-PDC patient-derived colon carcinoma cell line growth inhibition [KRAS2]
Settings: for pIC50: curve of first compound; for viability, T/C: stronger effect = lower value
In short: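 Combination screen of spheroid viability in tumor-cell co-cultures with endothelial (HUVEC) and mesenchymal stem cell stroma. Each agent was tested in half-log dilutions, topping at clinical Cmax or at 10 microM without a known Cmax.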

[1] = second compound 0.1 µM, first compound 0.0316 µM
[2] = second compound 0.1 µM, first compound 0.1 µM
[3] = second compound 0.1 µM, first compound 0.316 µM
[4] = second compound 0.1 µM, first compound 1 µM
[5] = second compound 0.316 µM, first compound 0.0316 µM
[6] = second compound 0.316 µM, first compound 0.1 µM
[7] = second compound 0.316 µM, first compound 0.316 µM
[8] = second compound 0.316 µM, first compound 1 µM
[9] = second compound 1 µM, first compound 0.0316 µM
[10] = second compound 1 µM, first compound 0.1 µM
[11] = second compound 1 µM, first compound 0.316 µM
[12] = second compound 1 µM, first compound 1 µM
[13] = second compound 3.16 µM, first compound 0.0316 µM
[14] = second compound 3.16 µM, first compound 0.1 µM
[15] = second compound 3.16 µM, first compound 0.316 µM
[16] = second compound 3.16 µM, first compound 1 µM
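Also: spheroids exposed to compounds for seven days before readout.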
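For viability, T/C in this document: 100% = DMSO vehicle control luminescence of the spheroids.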

| SMILES | pIC50 (second compound 0.1 µM) | pIC50 (second compound 0.316 µM) | pIC50 (second compound 1 µM) | pIC50 (second compound 3.16 µM) | viability, T/C [1] | viability, T/C [2] | viability, T/C [3] | viability, T/C [4] | viability, T/C [5] | viability, T/C [6] | viability, T/C [7] | viability, T/C [8] | viability, T/C [9] | viability, T/C [10] | viability, T/C [11] | viability, T/C [12] | viability, T/C [13] | viability, T/C [14] | viability, T/C [15] | viability, T/C [16] | other results |
| --- | --- | --- | --- | --- | --- | --- | --- | --- | --- | --- | --- | --- | --- | --- | --- | --- | --- | --- | --- | --- | --- |
| CCN1CCN(Cc2ccc(Nc3ncc(F)c(-c4cc(F)c5nc(C)n(C(C)C)c5c4)n3)nc2)CC1 + CNCc1ccccc1-c1csc(C(C)Nc2nc(C)nc3cc(OC)c(OC)cc23)c1 | 6.18 | 6.29 | 6.31 | > 8.50 | 76.8% | 69.1% | 70.9% | 40.4% | 84% | 63.1% | 59.9% | 41% | 81% | 62.6% | 63.1% | 35.8% | 26.4% | 21.7% | 17.9% | 14.7% | pIC50 (second compound 10 µM): > 8.50; viability, T/C (second compound 0.1 µM, first compound 0.00316 µM): 91.4%; viability, T/C (second compound 0.1 µM, first compound 0.01 µM): 94.5%; viability, T/C (second compound 0.316 µM, first compound 0.00316 µM): 110%; viability, T/C (second compound 0.316 µM, first compound 0.01 µM): 86.2%; viability, T/C (second compound 1 µM, first compound 0.00316 µM): 83.4%; viability, T/C (second compound 1 µM, first compound 0.01 µM): 83.6%; viability, T/C (second compound 3.16 µM, first compound 0.00316 µM): 42.2%; viability, T/C (second compound 3.16 µM, first compound 0.01 µM): 35.1%; viability, T/C (second compound 10 µM, first compound 0.00316 µM): 0.07%; viability, T/C (second compound 10 µM, first compound 0.01 µM): 0.09%; viability, T/C (second compound 10 µM, first compound 0.0316 µM): 0.09%; viability, T/C (second compound 10 µM, first compound 0.1 µM): 0.06%; viability, T/C (second compound 10 µM, first compound 0.316 µM): 0.07%; viability, T/C (second compound 10 µM, first compound 1 µM): 0.11% |
| O=C(c1cc(Cc2n[nH]c(=O)c3ccccc23)ccc1F)N1CCN(C(=O)C2CC2)CC1 + C=CC(=O)N1CCN(c2nc(OCC3CCCN3C)nc3c2CCN(c2cccc4cccc(C)c24)C3)CC1CC#N | < 5.00 | < 5.00 | < 5.00 | < 5.00 | 105% | 106% | 97.8% | 104% | 101% | 99.6% | 102% | 99.7% | 96.8% | 98.7% | 101% | 92% | 67.8% | 55.4% | 72.5% | 60.1% | pIC50 (second compound 0.0316 µM): < 5.00; viability, T/C (second compound 0.0316 µM, first compound 0.0316 µM): 108%; viability, T/C (second compound 0.0316 µM, first compound 0.1 µM): 111%; viability, T/C (second compound 0.0316 µM, first compound 0.316 µM): 96%; viability, T/C (second compound 0.0316 µM, first compound 1 µM): 96.4%; viability, T/C (second compound 0.0316 µM, first compound 3.16 µM): 81.5%; viability, T/C (second compound 0.0316 µM, first compound 10 µM): 84.9%; viability, T/C (second compound 0.1 µM, first compound 3.16 µM): 93.5%; viability, T/C (second compound 0.1 µM, first compound 10 µM): 92.6%; viability, T/C (second compound 0.316 µM, first compound 3.16 µM): 98.4%; viability, T/C (second compound 0.316 µM, first compound 10 µM): 92.7%; viability, T/C (second compound 1 µM, first compound 3.16 µM): 99.8%; viability, T/C (second compound 1 µM, first compound 10 µM): 92.1%; viability, T/C (second compound 3.16 µM, first compound 3.16 µM): 69.4%; viability, T/C (second compound 3.16 µM, first compound 10 µM): 69.4% |

— PubChem BioAssay AID1963868 (Molecular Pharmacology Branch, DTP, NCI, 2024)
